Measurements published in PMC10817917, “Alkyl deoxyglycoside-polymyxin combinations against critical priority carbapenem-resistant gram-negative bacteria” (Scientific Reports, 2024).
Values joined by “and” are separate entries in the source; they are usually repeats but may differ in a detail not shown here. Identical values can stand only once. Like-named read-outs stand apart in the source and are kept apart here.

What was measured:
P. aeruginosa CQ4924 = assay: Broth microdilution MIC, glycosides with or without polymyxins; type: cell-based, Pseudomonas aeruginosa; details: for MIC: Pseudomonas aeruginosa, CQ4924
E. coli ATCC 25922 = assay: Broth microdilution MIC/MBC, glycosides with or without polymyxins; type: cell-based, Escherichia coli; details: for MIC: Escherichia coli, ATCC25922
K. pneumoniae CQ1947 = assay: Broth microdilution MIC, glycosides with or without polymyxins; type: cell-based, Klebsiella pneumoniae; details: for MIC: Klebsiella pneumoniae, CQ1947
A. baumannii CQ4322 = assay: Broth microdilution MIC/MBC, glycosides with or without polymyxins; type: cell-based, Acinetobacter baumannii; details: for MIC: Acinetobacter baumannii, CQ4322
[1] = alone, read-out: MICA (MIC of each compound individually)
[2] = combination with the lowest FICI
[3] = compound + colistin, lowest FICI

SMILES: CCCCCCCCCCCCO[C@@H]1O[C@H](C)C[C@H](O)[C@H]1O [Compound 2, dodecyl 4,6-dideoxy-α/β-D-xylo-hexopyranoside]
- MIC of colistin in combination with the compound (P. aeruginosa CQ4924; Cpd conc. 0.4 μg/mL, strain H): > 0.5 µg/mL
- MIC of colistin in combination with the compound (P. aeruginosa CQ4924; Cpd conc. 0.8 μg/mL, strain H): > 0.5 µg/mL
- MIC of colistin in combination with the compound (P. aeruginosa CQ4924; Cpd conc. 3.125 μg/mL, strain H): > 0.5 µg/mL
- MIC of colistin in combination with the compound (P. aeruginosa CQ4924; Cpd conc. 6.25 μg/mL, strain H): 0.5 µg/mL
- MIC of colistin in combination with the compound (P. aeruginosa CQ4924; Cpd conc. 12.5 μg/mL, strain H): 0.5 µg/mL
- MIC of colistin in combination with the compound (P. aeruginosa CQ4924; Cpd conc. […], strain H): > 0.5 µg/mL
- MIC of compound in combination with PMB (P. aeruginosa CQ4924; PMB 0.25 μg/mL, strain H): > 100 µg/mL
- MIC (P. aeruginosa CQ4924; agent alone, no adjuvant (polymyxin conc. 0), strain H, read-out: MIC): > 100 µg/mL
- MIC (P. aeruginosa CQ4924; [1]): > 100 µg/mL
- MIC of compound in combination with colistin (P. aeruginosa CQ4924; colistin 0.06 μg/mL, strain H): > 100 µg/mL
- MIC of compound in combination with colistin (P. aeruginosa CQ4924; colistin 0.125 μg/mL, strain H): > 100 µg/mL
- MIC of compound in combination with colistin (P. aeruginosa CQ4924; colistin 0.25 μg/mL, strain H): > 100 µg/mL
- MIC of compound in combination with colistin (P. aeruginosa CQ4924; colistin 0.5 μg/mL, strain H): 6.3 µg/mL
- MICA(A + B) (MIC of compound in combination with colistin) (P. aeruginosa CQ4924; [2]): 6.25 µg/mL
- MICB(A + B) (MIC of colistin in combination with compound) (P. aeruginosa CQ4924; [2]): 0.5 µg/mL
- Interpretation (of FICI) (P. aeruginosa CQ4924; compound + colistin): Additive (from 0.5 to 1.0 were additive)
- FICI (P. aeruginosa CQ4924; [3]): 0.53
- MIC of colistin in combination with the compound (E. coli ATCC 25922; Cpd conc. 0.4 μg/mL, strain A): > 0.5 µg/mL
- MIC of colistin in combination with the compound (E. coli ATCC 25922; Cpd conc. 0.8 μg/mL, strain A): 0.5 µg/mL
- MIC of colistin in combination with the compound (E. coli ATCC 25922; Cpd conc. 3.125 μg/mL, strain A): ≤ 0.06 µg/mL
- MIC of colistin in combination with the compound (E. coli ATCC 25922; Cpd conc. 6.25 μg/mL, strain A): ≤ 0.06 µg/mL
- MIC of colistin in combination with the compound (E. coli ATCC 25922; Cpd conc. 12.5 μg/mL, strain A): ≤ 0.06 µg/mL
- MIC of colistin in combination with the compound (E. coli ATCC 25922; Cpd conc. […], strain A): 0.5 µg/mL
- MIC (E. coli ATCC 25922; agent alone, no adjuvant (polymyxin conc. 0), strain A, read-out: MIC): > 100 µg/mL
- MIC (E. coli ATCC 25922; [1]): > 100 µg/mL
- MIC of compound in combination with PMB (E. coli ATCC 25922; PMB 0.5 μg/mL, strain A): 0.8 µg/mL
- MIC of compound in combination with colistin (E. coli ATCC 25922; colistin 0.06 μg/mL, strain A): 3.1 µg/mL
- MBC of compound in combination with colistin (E. coli ATCC 25922; colistin 0.125 μg/mL, strain A): 3.1|3.1 μg/mL
- MIC of compound in combination with colistin (E. coli ATCC 25922; colistin 0.125 μg/mL, strain A): 3.1 μg/mL and 3.1|3.1 μg/mL
- MIC of compound in combination with colistin (E. coli ATCC 25922; colistin 0.25 μg/mL, strain A): 3.1 µg/mL
- MIC of compound in combination with colistin (E. coli ATCC 25922; colistin 0.5 μg/mL, strain A): 0.4 µg/mL
- MICA(A + B) (MIC of compound in combination with colistin) (E. coli ATCC 25922; [2]): 3.125 µg/mL
- MICB(A + B) (MIC of colistin in combination with compound) (E. coli ATCC 25922; [2]): 0.06 µg/mL
- Interpretation (of FICI) (E. coli ATCC 25922; compound + colistin): Synergy (Values ≤ 0.5 were considered synergistic)
- FICI (E. coli ATCC 25922; [3]): 0.14
- MIC of colistin in combination with the compound (K. pneumoniae CQ1947; Cpd conc. 0.4 μg/mL, strain F): > 0.5 µg/mL
- MIC of colistin in combination with the compound (K. pneumoniae CQ1947; Cpd conc. 0.8 μg/mL, strain F): 0.5 µg/mL
- MIC of colistin in combination with the compound (K. pneumoniae CQ1947; Cpd conc. 3.125 μg/mL, strain F): 0.5 µg/mL
- MIC of colistin in combination with the compound (K. pneumoniae CQ1947; Cpd conc. 6.25 μg/mL, strain F): 0.5 µg/mL
- MIC of colistin in combination with the compound (K. pneumoniae CQ1947; Cpd conc. 12.5 μg/mL, strain F): 0.5 µg/mL
- MIC of colistin in combination with the compound (K. pneumoniae CQ1947; Cpd conc. […], strain F): 0.5 µg/mL
- MIC (K. pneumoniae CQ1947; agent alone, no adjuvant (polymyxin conc. 0), strain F, read-out: MIC): > 100 µg/mL
- MIC (K. pneumoniae CQ1947; [1]): > 100 µg/mL
- MIC of compound in combination with PMB (K. pneumoniae CQ1947; PMB 0.25 μg/mL, strain F): > 100 µg/mL
- MIC of compound in combination with PMB (K. pneumoniae CQ1947; PMB 0.5 μg/mL, strain F): 0.8 µg/mL
- MIC of compound in combination with colistin (K. pneumoniae CQ1947; colistin 0.06 μg/mL, strain F): > 100 µg/mL
- MIC of compound in combination with colistin (K. pneumoniae CQ1947; colistin 0.125 μg/mL, strain F): > 100 µg/mL
- MIC of compound in combination with colistin (K. pneumoniae CQ1947; colistin 0.25 μg/mL, strain F): > 100 µg/mL
- MIC of compound in combination with colistin (K. pneumoniae CQ1947; colistin 0.5 μg/mL, strain F): 0.8 µg/mL
- MICA(A + B) (MIC of compound in combination with colistin) (K. pneumoniae CQ1947; [2]): 0.8 µg/mL
- MICB(A + B) (MIC of colistin in combination with compound) (K. pneumoniae CQ1947; [2]): 0.5 µg/mL
- Interpretation (of FICI) (K. pneumoniae CQ1947; compound + colistin): Indifferent (1.0 to 4.0 were indifferent)
- FICI (K. pneumoniae CQ1947; [3]): 1.004
- MIC (A. baumannii CQ4322; agent alone, no adjuvant (polymyxin conc. 0), strain G, read-out: MIC): > 100 µg/mL
- MIC (A. baumannii CQ4322; [1]): > 100 µg/mL
- MIC of colistin in combination with the compound (A. baumannii CQ4322; Cpd conc. 0.4 μg/mL, strain G): > 0.5 µg/mL
- MIC of colistin in combination with the compound (A. baumannii CQ4322; Cpd conc. 0.8 μg/mL, strain G): 0.5 µg/mL
- MIC of colistin in combination with the compound (A. baumannii CQ4322; Cpd conc. 3.125 μg/mL, strain G): 0.25 µg/mL
- MIC of colistin in combination with the compound (A. baumannii CQ4322; Cpd conc. 6.25 μg/mL, strain G): 0.125 µg/mL
- MIC of colistin in combination with the compound (A. baumannii CQ4322; Cpd conc. 12.5 μg/mL, strain G): 0.125 µg/mL
- MIC of colistin in combination with the compound (A. baumannii CQ4322; Cpd conc. […], strain G): 0.5 µg/mL
- MIC of compound in combination with PMB (A. baumannii CQ4322; PMB 0.5 μg/mL, strain G): 0.8 µg/mL
- MIC of compound in combination with colistin (A. baumannii CQ4322; colistin 0.06 μg/mL, strain G): > 100 µg/mL
- MBC of compound in combination with colistin (A. baumannii CQ4322; colistin 0.125 μg/mL, strain G): 12.5 µg/mL
- MIC of compound in combination with colistin (A. baumannii CQ4322; colistin 0.125 μg/mL, strain G): 6.3 µg/mL
- MIC of compound in combination with colistin (A. baumannii CQ4322; colistin 0.25 μg/mL, strain G): 3.1 µg/mL
- MIC of compound in combination with colistin (A. baumannii CQ4322; colistin 0.5 μg/mL, strain G): 0.8 µg/mL
- MICA(A + B) (MIC of compound in combination with colistin) (A. baumannii CQ4322; [2]): 6.25 µg/mL
- MICB(A + B) (MIC of colistin in combination with compound) (A. baumannii CQ4322; [2]): 0.125 µg/mL
- FICI (A. baumannii CQ4322; [3]): 0.28
